According to patent publication US20210147367A1, “CRYSTALLINE FORMS OF A MAGL INHIBITOR” (Lundbeck La Jolla Research Center, Inc., priority 2019, published 2021):
Entries after “also recorded” stand apart in the source; their conditions may differ. Read-outs that look alike come from different tables or passages of the source.

Columns and labels:
[1] = Slurry experiments in different solvents; type: physicochemical
[2] = Differential scanning calorimetry (DSC) with XRPD after heating: relative stability of crystalline forms; type: physicochemical; details: for thermodynamic stability relative to other crystalline forms: DSC analysis; for solid form after heating (XRPD): heated to 130° C., above the exotherm, prior to melting
Method: X-Ray powder diffractograms were measured on a PANalytical X'Pert PRO X-Ray Diffractometer using CuKα1 radiation (λ=1.5406 Å). The samples were measured in reflection mode in the 2θ-range 3-40 using an X'celerator detector.
Differential Scanning Calorimetry was measured using a TA-Instruments Discovery-DSC calibrated at 5°/min to give the melting point as onset value. About 2 mg of sample is heated 5°/min under nitrogen flow in a closed pan with a pinhole in the lid.

[3] = Dynamic vapor sorption (DVS); type: physicochemical
Method: Dynamic vapour sorption (DVS) was measured using SMS DVS advantage 01 changing the relative humidity from 0% RH to 95% RH in steps of 10% RH (5% between 90 and 95% RH). 2 cycles were performed using 4 mg, starting at 30% RH. The weight changes during the sorption/desorption cycles were plotted, allowing for the hygroscopic nature of the sample to be determined.

MAGL [4] = target: T1, MAGL (Mus musculus, UniProt O35678); assay: MAGL inhibition in mouse brain proteomes from inhibitor treated mice; type: in vivo; details: 5 mg/kg oral gavage, brain proteome 4 h after administration, C57Bl/6J mice, read-out: MAGL % inh. 5 mg/kg (mouse)
T1 construct: from tissue; host or cells: brain of wild-type C57Bl/6J mice
T1 sequence (O35678 1-303): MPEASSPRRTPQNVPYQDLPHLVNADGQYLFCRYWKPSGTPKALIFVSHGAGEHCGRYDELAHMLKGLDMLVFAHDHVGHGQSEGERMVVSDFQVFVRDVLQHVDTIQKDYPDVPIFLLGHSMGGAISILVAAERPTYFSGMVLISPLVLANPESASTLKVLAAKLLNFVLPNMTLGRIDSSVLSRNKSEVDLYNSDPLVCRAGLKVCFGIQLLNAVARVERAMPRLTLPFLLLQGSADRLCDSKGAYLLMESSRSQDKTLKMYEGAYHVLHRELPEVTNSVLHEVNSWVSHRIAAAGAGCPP
Method: (§1) Proteomes (mouse brain membrane fraction or cell lysates for mouse assays; human prefrontal cortex or cell membrane fractions for human assays) (50 μL, 1.0 mg/mL total protein concentration) were preincubated with varying concentrations of inhibitors at 37° C. After 30 min, FP-Rh or HT-01 (1.0 μL, 50 μM in DMSO) was added and the mixture was incubated for another 30 min at 37° C. Reactions were quenched with SDS loading buffer (15 μL-4×) and run on SDS-PAGE. Following gel imaging, serine hydrolase activity was determined by measuring fluorescent intensity of gel bands corresponding to MAGL using ImageJ 1.43u software.
Inhibitors were administered to wild-type C57Bl/6J by oral gavage in a vehicle of polyethylene glycol. Each animal was sacrificed 4 h following administration and brain proteomes were prepared and analyzed according to previously established methods (See Niphakis et al., ACS Chem. Neurosci. 2011 and Long et al. Nat. Chem. Biol. 2009).

MAGL [5] = target: T2, MAGL (Homo sapiens, UniProt Q99685); assay: In vitro competitive activity-based protein profiling; type: biochemical
T2 construct: human prefrontal cortex or cell membrane fractions for human assays; from tissue
T2 sequence (Q99685 1-303): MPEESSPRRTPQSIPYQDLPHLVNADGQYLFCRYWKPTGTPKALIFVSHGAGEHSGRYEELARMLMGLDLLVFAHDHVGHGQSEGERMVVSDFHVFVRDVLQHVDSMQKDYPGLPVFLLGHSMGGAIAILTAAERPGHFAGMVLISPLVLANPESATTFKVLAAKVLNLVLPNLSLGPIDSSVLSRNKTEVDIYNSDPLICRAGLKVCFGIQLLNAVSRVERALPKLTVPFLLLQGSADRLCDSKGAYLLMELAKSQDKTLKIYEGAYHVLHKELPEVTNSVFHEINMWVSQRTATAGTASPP
Method: as §1

CC(C)(Oc1cc(C(F)(F)F)ccc1CN1CCN(C(=O)OC(C(F)(F)F)C(F)(F)F)CC1)C(=O)O [Compound (I) form A, 2-(2-((4-(((1,1,1,3,3,3-hexafluoropropan-2-yl)oxy)carbonyl)piperazin-1-yl)methyl)-5-(trifluoromethyl)phenoxy)-2-methylpropanoic acid form A]
transformation of solid form in slurry ([1]; different solvents, temperatures up to 60° C.): did not lead to transformation into Compound (I) Form D | thermodynamic stability relative to other crystalline forms [2]: the most stable free form up to 60 °C | thermodynamic stability relative to other crystalline forms ([2]; listed as Compound (I) Form A): thermodynamically more stable than Compound (I) Form C; also recorded: thermodynamically more stable than Compound (I) Form E

CC(C)(Oc1cc(C(F)(F)F)ccc1CN1CCN(C(=O)OC(C(F)(F)F)C(F)(F)F)CC1)C(=O)O [Compound (I) form C, 2-(2-((4-(((1,1,1,3,3,3-hexafluoropropan-2-yl)oxy)carbonyl)piperazin-1-yl)methyl)-5-(trifluoromethyl)phenoxy)-2-methylpropanoic acid form C]
solid form after heating (XRPD) ([2]; listed as Compound (I) Form C): transformed into Form A

CC(C)(Oc1cc(C(F)(F)F)ccc1CN1CCN(C(=O)OC(C(F)(F)F)C(F)(F)F)CC1)C(=O)O [Compound (I) form D, 2-(2-((4-(((1,1,1,3,3,3-hexafluoropropan-2-yl)oxy)carbonyl)piperazin-1-yl)methyl)-5-(trifluoromethyl)phenoxy)-2-methylpropanoic acid form D]
temperature above which Compound (I) Form D is the more stable form ([1]; compared with Form A, inferred from slurry experiments): ≥ 60 °C | thermodynamic stability relative to other crystalline forms [2]: more thermodynamically stable at higher temperatures | thermodynamic stability relative to other crystalline forms ([2]; listed as Compound (I) Form D): more thermodynamically stable at high temperature but less stable at low temperature compared to Compound (I) Form A

CC(C)(Oc1cc(C(F)(F)F)ccc1CN1CCN(C(=O)OC(C(F)(F)F)C(F)(F)F)CC1)C(=O)O [Compound (I) form E, 2-(2-((4-(((1,1,1,3,3,3-hexafluoropropan-2-yl)oxy)carbonyl)piperazin-1-yl)methyl)-5-(trifluoromethyl)phenoxy)-2-methylpropanoic acid form E]
solid form after heating (XRPD) ([2]; listed as Form E): transformed into Compound (I) Form A

CC(C)(Oc1cc(C(F)(F)F)ccc1CN1CCN(C(=O)OC(C(F)(F)F)C(F)(F)F)CC1)C(=O)O.O [Compound (I) hydrate, 2-(2-((4-(((1,1,1,3,3,3-hexafluoropropan-2-yl)oxy)carbonyl)piperazin-1-yl)methyl)-5-(trifluoromethyl)phenoxy)-2-methylpropanoic acid hydrate]
behaviour in sorption/desorption cycles ([3]; 0% RH to 95% RH, 2 cycles): dehydration of the hydrate occurs at low relative humidity | solid state after DVS measurement ([3]; after 2 cycles 0% RH to 95% RH): turned amorphous

CC(C)(Oc1cc(C(F)(F)F)ccc1CN1CCN(C(=O)OC(C(F)(F)F)C(F)(F)F)CC1)C(=O)O [Compound (I), 2-(2-((4-(((1,1,1,3,3,3-hexafluoropropan-2-yl)oxy)carbonyl)piperazin-1-yl)methyl)-5-(trifluoromethyl)phenoxy)-2-methylpropanoic acid]
inhibition at 5 mg/kg (MAGL [4]): ≥ 75% | inhibition at 1 µM (MAGL [5]; 1 μM, human proteome, read-out: MAGL % inh. 1 μM (human)): ≥ 75% | IC50 (MAGL [5]; human proteome, read-out: MAGL IC50 (human)): ≤ 50 nM | IC50 (MAGL [5]; protocol of example 14, read-out: MAGL IC50): ≤ 50 nM
